Patent US20080176857A1, “4-Piperazinnylthieno[2,3-d]Pyrimidine Compounds as Platelet Aggregation Inhibitors” (priority 2005, published 2008)
Values joined by “and” are separate entries in the source; they are usually repeats but may differ in a detail not shown here. Equal entries are not always repeated.

Biological target: P2Y12 receptor (Homo sapiens, UniProt Q9H244)
Assay: [33P]-2MeS-ADP binding to recombinant human P2Y12 membranes (Assay 3)
Set-up: expressed in transfected cells; host or cells: HEK cells
Settings: for IC50 / Ki: HEK cell membranes expressing human P2Y12, competition with 33P 2MeS-ADP
Method: 3. Human P2Y12 Recombinant Cell Membrane Binding Assay with ^33P 2MeS-ADP.
The ability of a test compound to bind to the P2Y12 receptor was evaluated in a recombinant cell membrane binding assay. In this competitive binding assay, the test compound competed against a radiolabelled agonist for binding to the P2Y12 receptor, expressed on the cell membrane. Inhibition of binding of the labeled material was measured and correlated to the amount and potency of the test compound. Data from this assay are presented in Table F. This binding assay is a modification of the procedure in Takasaki, J. et. al, Mol. Pharmacol., 2001, Vol. 60, pg. 432.
HEK cells were transfected with the pDONR201P2Y12 vector and cultured in MEM with GlutaMAX I, Earle's salts, 25 mM HEPES (Gibco # 42360-032) containing 10% dialyzed FBS (Gibco # 26400-044), 100 μM nonessential amino acids (Gibco # 11140-050), 1 mM sodium pyruvate (Gibco # 11360-070), 0.05% geneticin (Gibco #10131-027), 3 μg/mL blasticidin (Fluka brand from Sigma # 15205), and 0.5 μg/mL puromycin (Sigma # P-8833).
Confluent cells were washed once with cold DPBS (Gibco # 14190-136). Fresh DPBS was added and the cells were scraped and centrifuged at 500×g for 5 minutes at 4° C. The cell pellets were resuspended in TEE buffer (25 mM Tris, 5 mM EDTA, 5 mM EGTA) containing 1 protease inhibitor cocktail tablet (Roche # 1 873 580) per 50 mL (called TEE+Complete) and can be flash frozen at this point.
In one embodiment, frozen cell pellets were used to prepare the membranes. In that embodiment, the frozen cell pellets were thawed on ice. In another embodiment, cell pellets may be used without flash freezing before moving on to the next step.
Cell pellets were resuspended in TEE buffer+Complete and homogenized in a glass dounce for 12 strokes. The cell suspension was centrifuged at 500×g for 5 minutes at 4° C. The supernatant was saved and centrifuged at 20,000×g for 20 minutes at 4° C. This supernatant was discarded and the cell pellet resuspended in TEE buffer+Complete and homogenized in a glass dounce for 12 strokes. This suspension was centrifuged at 20,000×g for 20 minutes at 4° C. and the supernatant discarded. The pellet was resuspended in assay buffer (50 mM Tris, 100 mM NaCl, 1 mM EDTA) containing one protease inhibitor cocktail tablet per 50 mL, and can be flash frozen as 1 mL aliquots at this point.
Dry compounds were diluted as 10 mM DMSO stocks and tested in a seven-point, three-fold dilution series run in triplicate beginning at 10 μM, final concentration. A 1 mM DMSO intermediate stock was made in a dilution plate and from this the seven dilutions were made to 5× the final concentration in assay buffer containing 0.02% BSA.
The plates were incubated at room temperature for 1 hour. The reaction was stopped using a cell harvester to transfer the reaction mixture onto GF/B UniFilter plates (Perkin Elmer # 6005177), and washed three times with wash buffer (50 mM Tris), filtering between each wash. The filter plates were dried for approximately 20 minutes in an oven at 50° C. Back seals were adhered to the filter plates and 25 uL of Microscint 20 scintillation fluid (Perkin Elmer # 6013621) were added. The filter plates were sealed, shaken for 30 minutes, and counted on a Top Count. Data were analyzed using a four-parameter curve fit with a fixed minimum and maximum experimentally defined as the average positive and negative controls on each plate, and with a hill slope equal to one.
The table below presents the IC50, Ki, and percent inhibition values for compounds tested in either washed human platelets membrane binding assay (assay #1 above) or recombinant cell membrane binding assay (Assay #3, above). Example number refers to the compound prepared as described in the example noted in the section Working Examples, above. The highest concentration of candidate compound tested is listed for each experimental run presented. […]

[1] = at highest concentration tested, 10 μM

Sequence of P2Y12 receptor (Q9H244 whole entry): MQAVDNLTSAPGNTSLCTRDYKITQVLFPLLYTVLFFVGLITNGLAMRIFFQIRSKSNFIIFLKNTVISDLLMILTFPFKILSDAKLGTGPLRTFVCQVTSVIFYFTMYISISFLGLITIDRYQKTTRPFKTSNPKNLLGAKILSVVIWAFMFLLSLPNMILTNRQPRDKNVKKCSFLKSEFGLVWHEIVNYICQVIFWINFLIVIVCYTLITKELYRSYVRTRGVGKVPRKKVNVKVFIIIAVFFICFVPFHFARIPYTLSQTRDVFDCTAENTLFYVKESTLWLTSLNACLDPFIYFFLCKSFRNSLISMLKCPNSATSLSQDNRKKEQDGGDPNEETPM

| IC50 | Ki | inhibition at 10 µM [1] [%] | % Inhibition [1] [%] | SMILES |
| --- | --- | --- | --- | --- |
| 0.052 µM | 0.029 µM | 93.2 | – | CCc1cc2c(N3CCN(C(=O)c4ccc(-c5ccccc5)cc4)CC3)nc(SCCO)nc2s1 [Example 32, 2-({4-[4-(1′-Biphenyl-4-ylcarbonyl)piperazin-1-yl]-6-ethylthieno[2,3-d]pyrimidin-2-yl}thio)ethanol] |
| > 10 µM | > 6.7 µM | -4.55 | – | C#CCCCC(=O)N1CCN(c2nc(SCC(=O)OC)nc3sc(CC)cc23)CC1 [Example 35, Methyl {[6-ethyl-4-(4-hex-5-ynoylpiperazin-1-yl)thieno[2,3-d]pyrimidin-2-yl]thio}acetate] |
| 0.22 µM | 0.15 µM | 97.6 | – | C#CCCCCC(=O)N1CCN(c2nc(SCC(=O)OC)nc3sc(CC)cc23)CC1 [Example 36, Methyl {[6-ethyl-4-(4-hept-6-ynoylpiperazin-1-yl)thieno[2,3-d]pyrimidin-2-yl]thio}acetate] |
| 1.25 µM | 0.84 µM | 78.3 | – | C#CCCC(=O)N1CCN(c2nc(SCC(=O)OC)nc3sc(CC)cc23)CC1 [Example 37, Methyl {[6-ethyl-4-(4-pent-4-ynoylpiperazin-1-yl)thieno[2,3-d]pyrimidin-2-yl]thio}acetate] |
| 0.6 µM | 0.4 µM | 77.2 | – | CCc1cc2c(N3CCN(C(=O)C4COc5ccccc5O4)CC3)nc(SCC(=O)OC)nc2s1 (stereo not shown) [Example 38, Methyl ({4-[4-(2,3-dihydro-1,4-benzodioxin-2-ylcarbonyl)piperazin-1-yl]-6-ethylthieno[2,3-d]pyrimidin-2-yl}thio)acetate] |
| > 10 µM | > 6.7 µM | 43.1 | – | CCc1cc2c(N3CCN(C(=O)CC(C)CC(C)(C)C)CC3)nc(SCC(=O)OC)nc2s1 (stereo not shown) [Example 39, Methyl ({6-ethyl-4-[4-(3,5,5-trimethylhexanoyl)piperazin-1-yl]thieno[2,3-d]pyrimidin-2-yl}thio)acetate] |
| 4.15 µM | 2.76 µM | 59 | – | CCc1cc2c(N3CCN(C(=O)CCC4CCCC4)CC3)nc(SCC(=O)OC)nc2s1 [Example 40, Methyl ({4-[4-(3-cyclopentylpropanoyl)piperazin-1-yl]-6-ethylthieno[2,3-d]pyrimidin-2-yl}thio)acetate] |
| 2.57 µM | 1.72 µM | 71.6 | – | CCc1cc2c(N3CCN(C(=O)CCCC(=O)OC)CC3)nc(SCC(=O)OC)nc2s1 [Example 41, Methyl 5-(4-{6-ethyl-2-[(2-methoxy-2-oxoethyl)thio]thieno[2,3-d]pyrimidin-4-yl}piperazin-1-yl)-5-oxopentanoate] |
| 5.74 µM | 3.83 µM | 52.3 | – | CCc1cc2c(N3CCN(C(=O)CCC(=O)OC)CC3)nc(SCC(=O)OC)nc2s1 [Example 42, Methyl 4-(4-{6-ethyl-2-[(2-methoxy-2-oxoethyl)thio]thieno[2,3-d]pyrimidin-4-yl}piperazin-1-yl)-4-oxobutanoate] |
| 2.38 µM | 1.58 µM | 78.2 | – | CCc1cc2c(N3CCN(C(=O)CCCCC(=O)OC)CC3)nc(SCC(=O)OC)nc2s1 [Example 43, Methyl 6-(4-{6-ethyl-2-[(2-methoxy-2-oxoethyl)thio]thieno[2,3-d]pyrimidin-4-yl}piperazin-1-yl)-6-oxohexanoate] |
| 4.03 µM | 2.69 µM | 63.6 | – | CCc1cc2c(N3CCN(C(=O)CC(=O)OC)CC3)nc(SCC(=O)OC)nc2s1 [Example 44, Methyl 3-(4-{6-ethyl-2-[(2-methoxy-2-oxoethyl)thio]thieno[2,3-d]pyrimidin-4-yl}piperazin-1-yl)-3-oxopropanoate] |
| > 10 µM | > 6.7 µM | 42.5 | – | CCc1cc2c(N3CCN(C(=O)c4ccc(C)cc4)CC3)nc(SCC(=O)OC)nc2s1 [Example 45, Methyl ({6-ethyl-4-[4-(4-methylbenzoyl)piperazin-1-yl]thieno[2,3-d]pyrimidin-2-yl}thio)acetate] |
| > 10 µM | > 6.7 µM | 41.8 | – | CCc1cc2c(N3CCN(C(=O)c4ccc(C(F)(F)F)cc4)CC3)nc(SCC(=O)OC)nc2s1 [Example 46, Methyl [(6-ethyl-4-{4-[4-(trifluoromethyl)benzoyl]piperazin-1-yl}thieno[2,3-d]pyrimidin-2-yl)thio]acetate] |
| 5.44 µM | 3.63 µM | 48.6 | – | CCc1cc2c(N3CCN(C(=O)/C=C/c4ccccc4)CC3)nc(SCC(=O)OC)nc2s1 [Example 47, Methyl [(6-ethyl-4-{4-[(2E)-3-phenylprop-2-enoyl]piperazin-1-yl}thieno[2,3-d]pyrimidin-2-yl)thio]acetate] |
| 0.19 µM | 0.13 µM | 95.8 | – | CCc1cc2c(N3CCN(C(=O)c4ccc(-n5cccn5)cc4)CC3)nc(SCC(=O)OC)nc2s1 [Example 48, Methyl [(6-ethyl-4-{4-[4-(1H-pyrazol-1-yl)benzoyl]piperazin-1-yl}thieno[2,3-d]pyrimidin-2-yl)thio]acetate] |
| 5.52 µM | 3.68 µM | 56.8 | – | CCc1cc2c(N3CCN(C(=O)c4ccc(OC(F)(F)F)cc4)CC3)nc(SCC(=O)OC)nc2s1 [Example 49, Methyl [(6-ethyl-4-{4-[4-(trifluoromethoxy)benzoyl]piperazin-1-yl}thieno[2,3-d]pyrimidin-2-yl)thio]acetate] |
| > 10 µM | > 6.7 µM | 40.3 | – | CCc1cc2c(N3CCN(C(=O)c4cccc5ccccc45)CC3)nc(SCC(=O)OC)nc2s1 [Example 50, Methyl ({6-ethyl-4-[4-(1-naphthoyl)piperazin-1-yl]thieno[2,3-d]pyrimidin-2-yl}thio)acetate] |
| 1.58 µM | 1.05 µM | 74.2 | – | CCc1cc2c(N3CCN(C(=O)c4cc(F)cc(F)c4)CC3)nc(SCC(=O)OC)nc2s1 [Example 51, Methyl ({4-[4-(3,5-difluorobenzoyl)piperazin-1-yl]-6-ethylthieno[2,3-d]pyrimidin-2-yl}thio)acetate] |
| 2.67 µM | 1.78 µM | 67.7 | – | CCc1cc2c(N3CCN(C(=O)c4ccc(C#N)cc4)CC3)nc(SCC(=O)OC)nc2s1 [Example 52, Methyl ({4-[4-(4-cyanobenzoyl)piperazin-1-yl]-6-ethylthieno[2,3-d]pyrimidin-2-yl}thio)acetate] |
| 2.33 µM | 1.56 µM | 68.8 | – | CCc1cc2c(N3CCN(C(=O)c4cc(F)ccc4F)CC3)nc(SCC(=O)OC)nc2s1 [Example 53, Methyl ({4-[4-(2,5-difluorobenzoyl)piperazin-1-yl]-6-ethylthieno[2,3-d]pyrimidin-2-yl}thio)acetate] |
| 6.19 µM and 4.44 µM | 3.56 µM and 2.96 µM | 47.8 | 61.77 | CCc1cc2c(N3CCN(C(=O)c4ccc(N(C)C)cc4)CC3)nc(SCC(=O)OC)nc2s1 [Example 54, Methyl [(4-{4-[4-(dimethylamino)benzoyl]piperazin-1-yl}-6-ethylthieno[2,3-d]pyrimidin-2-yl)thio]acetate] |
| 1.47 µM | 0.98 µM | 61.2 | – | CCc1cc2c(N3CCN(C(=O)c4ccc5ccccc5c4)CC3)nc(SCC(=O)OC)nc2s1 [Example 55, Methyl ({6-ethyl-4-[4-(2-naphthoyl)piperazin-1-yl]thieno[2,3-d]pyrimidin-2-yl}thio)acetate] |
